The record followed here is publication PMC10865860 (mBio, 2023).

This assay has as its system SARS-CoV-2 Omicron subvariant XBB.1.16. Set-up: species or system K18-hACE2 mice. The settings on record: mouse, in vivo.

As for `COc1ccccc1C1CC1COC(=O)NC(CC(C)C)C(=O)NC(CC1CCNC1=O)C(O)S(=O)(=O)O` (stereo not shown) [11d], the “body weight loss compared to vehicle” value is on record as “reduced weight losses”; the “lung edema average score” value is less than 0.5; the “viral titers in nasal wash, nasal turbinate, and lungs compared to vehicle” value is reported as “significantly lower”. The “fatality by 14 days after virus infection” value (ip) is reported as 20%.
